Laboratory results as given in ChEMBL document CHEMBL1146613, “Novel inhibitors of procollagen C-terminal proteinase. Part 1: diamino Acid hydroxamates” (Bioorg Med Chem Lett, 2003).

Target: T1, Bone morphogenetic protein 1 (Homo sapiens, UniProt P13497)
T1 sequence (P13497 whole entry): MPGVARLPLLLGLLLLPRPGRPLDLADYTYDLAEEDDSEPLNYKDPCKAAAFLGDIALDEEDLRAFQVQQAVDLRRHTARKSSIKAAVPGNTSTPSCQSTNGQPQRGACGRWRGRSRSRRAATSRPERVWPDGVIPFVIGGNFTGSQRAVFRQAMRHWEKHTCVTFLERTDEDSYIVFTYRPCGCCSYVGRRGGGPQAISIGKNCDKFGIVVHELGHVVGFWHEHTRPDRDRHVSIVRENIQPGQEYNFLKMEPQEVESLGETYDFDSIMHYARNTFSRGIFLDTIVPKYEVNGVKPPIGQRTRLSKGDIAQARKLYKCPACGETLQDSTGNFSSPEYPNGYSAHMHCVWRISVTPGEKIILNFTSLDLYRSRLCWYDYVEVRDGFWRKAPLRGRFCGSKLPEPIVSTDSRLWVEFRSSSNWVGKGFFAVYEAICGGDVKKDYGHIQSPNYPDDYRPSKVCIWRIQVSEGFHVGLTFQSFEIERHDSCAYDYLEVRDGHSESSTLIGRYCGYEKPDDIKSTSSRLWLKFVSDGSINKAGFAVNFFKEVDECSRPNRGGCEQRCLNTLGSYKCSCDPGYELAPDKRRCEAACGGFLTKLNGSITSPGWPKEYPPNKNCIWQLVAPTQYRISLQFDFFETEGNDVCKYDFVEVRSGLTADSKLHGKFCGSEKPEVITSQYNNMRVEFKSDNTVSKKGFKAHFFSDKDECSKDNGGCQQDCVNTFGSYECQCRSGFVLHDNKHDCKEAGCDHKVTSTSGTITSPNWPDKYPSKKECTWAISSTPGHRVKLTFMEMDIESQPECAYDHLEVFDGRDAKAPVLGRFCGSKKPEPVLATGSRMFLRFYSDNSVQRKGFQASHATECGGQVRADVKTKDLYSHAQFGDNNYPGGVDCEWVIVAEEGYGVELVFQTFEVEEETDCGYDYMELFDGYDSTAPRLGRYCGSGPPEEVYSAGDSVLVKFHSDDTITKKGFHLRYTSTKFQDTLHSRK
Assay: In vitro inhibitory activity against procollagen C-terminal proteinase (PCP) in HT1080 cells using synthetic peptide as substrate
Assay type: cell-based, HT-1080

| SMILES | Ki |
| --- | --- |
| COc1ccc(S(=O)(=O)N(Cc2ccc3c(c2)OCO3)[C@H](CNS(=O)(=O)Cc2cccc([N+](=O)[O-])c2)C(=O)NO)cc1 | 0.028 µM |
| COc1ccc(S(=O)(=O)N(Cc2ccc3c(c2)OCO3)[C@H](CNC(=O)c2ccccc2-n2cccc2)C(=O)NO)cc1 | 0.008 µM |
| COc1ccc(S(=O)(=O)N(Cc2ccc3c(c2)OCO3)[C@H](CCNC(=O)CCc2nc3ccccc3[nH]2)C(=O)NO)cc1 | 0.41 µM |
| COc1ccc(S(=O)(=O)N(Cc2ccc3c(c2)OCO3)[C@H](CNC(=O)CNc2cnccn2)C(=O)NO)cc1 | 0.25 µM |
| COc1ccc(S(=O)(=O)N(Cc2ccc3c(c2)OCO3)[C@H](CNCc2ccc(NC(C)=O)cc2)C(=O)NO)cc1 | 1.01 µM |
| COc1ccc(S(=O)(=O)N(Cc2ccc3c(c2)OCO3)[C@H](CCNC(=O)CNc2cnccn2)C(=O)NO)cc1 | 2.5 µM |
| COC(=O)c1ccc(C(=O)NC[C@H](C(=O)NO)N(Cc2ccc3c(c2)OCO3)S(=O)(=O)c2ccc(OC)cc2)cc1 | 0.007 µM |
| COc1ccc(S(=O)(=O)N(Cc2ccc3c(c2)OCO3)[C@H](CNC(=O)c2cnoc2C)C(=O)NO)cc1 | 1.96 µM |
| CCOc1ccc(NC(=O)NC[C@H](C(=O)NO)N(Cc2ccc3c(c2)OCO3)S(=O)(=O)c2ccc(OC)cc2)cc1 | 0.022 µM |
| CCOC(=O)C1CCC(NCC(=O)NCC[C@H](C(=O)NO)N(Cc2ccc3c(c2)OCO3)S(=O)(=O)c2ccc(OC)cc2)CC1 (some centres undefined) | 0.47 µM |
| COc1ccc(S(=O)(=O)N(Cc2ccc3c(c2)OCO3)[C@H](CNC(=O)NS(=O)(=O)c2ccc(Cl)cc2)C(=O)NO)cc1 | 0.018 µM |

Second part, the compound after the results:

| Ki | SMILES |
| --- | --- |
| 0.53 µM | COc1ccc(S(=O)(=O)N(Cc2ccc3c(c2)OCO3)[C@H](CCNC(=O)c2ccccc2-n2cccc2)C(=O)NO)cc1 |
| 0.96 µM | COc1ccc(S(=O)(=O)N(Cc2ccc3c(c2)OCO3)[C@H](CCNC(=O)c2c(-c3ccccc3)noc2C)C(=O)NO)cc1 |
| 0.84 µM | COC(=O)c1ccc(C(=O)NCC[C@H](C(=O)NO)N(Cc2ccc3c(c2)OCO3)S(=O)(=O)c2ccc(OC)cc2)cc1 |
| 0.014 µM | COc1ccc(S(=O)(=O)N(Cc2ccc3c(c2)OCO3)[C@H](CNC(=O)c2ccccc2)C(=O)NO)cc1 |
| 0.086 µM | COc1ccc(S(=O)(=O)N(Cc2ccc3c(c2)OCO3)[C@H](CCNC(=O)c2cnoc2C)C(=O)NO)cc1 |
| 0.1 µM | COc1ccc(S(=O)(=O)N(Cc2ccc3c(c2)OCO3)[C@H](CCCNC(=O)c2ccccc2)C(=O)NO)cc1 |
| 0.47 µM | COc1ccc(S(=O)(=O)N(Cc2ccc3c(c2)OCO3)[C@H](CCNC(=O)c2ccccc2)C(=O)NO)cc1 |
| 0.35 µM | COc1ccc(S(=O)(=O)N(Cc2ccc3c(c2)OCO3)[C@H](CCCCNC(=O)c2ccccc2)C(=O)NO)cc1 |
